Reference: US8710038B2, “Pyrazole kinase modulators and methods of use” (Exelixis, Inc., priority 2004, dated 2014)

Columns and labels:
flt-3 = biological target: T1, flt-3 (Homo sapiens, UniProt P36888); test: flt-3 Luciferase-Coupled Chemiluminescent Kinase assay (LCCA); type: biochemical
T1 construct: baculovirus expressed human Flt-3 kinase domain R571-S993
T1 sequence (P36888 571-993): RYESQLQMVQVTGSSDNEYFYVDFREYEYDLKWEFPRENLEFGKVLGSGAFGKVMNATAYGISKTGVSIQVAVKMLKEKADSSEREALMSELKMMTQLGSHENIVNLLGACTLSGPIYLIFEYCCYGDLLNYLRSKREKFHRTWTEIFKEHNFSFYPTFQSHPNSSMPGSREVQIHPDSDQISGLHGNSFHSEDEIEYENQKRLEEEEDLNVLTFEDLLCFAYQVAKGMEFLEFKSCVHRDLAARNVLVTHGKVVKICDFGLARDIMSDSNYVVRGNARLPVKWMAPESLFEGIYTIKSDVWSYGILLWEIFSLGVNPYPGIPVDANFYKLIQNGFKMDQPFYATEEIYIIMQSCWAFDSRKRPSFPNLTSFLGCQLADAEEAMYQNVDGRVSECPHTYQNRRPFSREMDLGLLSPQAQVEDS
Procedure, shortened: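 Baculovirus-expressed human Flt-3 kinase domain (R571-S993, 5 nM) was reacted with 5 μM ATP and 3 μM poly-EY in Tris pH 7.5 buffer with MgCl2/MnCl2 for 3 h at ambient temperature. Remaining ATP was read by luciferase-luciferin chemiluminescence, with ATP consumption standardized to 25-45%, for IC50.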

EGFR = EGFR (Homo sapiens, UniProt P00533); test: EGFR kinase inhibition assay; type: biochemical
Method: (§1) Kinase activity and compound inhibition are investigated using one or more of the three assay formats described below. The ATP concentrations for each assay are selected to be close to the Michaelis-Menten constant (KM) for each individual kinase. Dose-response experiments are performed at 10 different inhibitor concentrations in a 384-well plate format. The data are fitted to four-parameter equation (2) below; where Y is the observed signal, X is the inhibitor concentration, Min is the background signal in the absence of enzyme (0% enzyme activity), Max is the signal in the absence of inhibitor (100% enzyme activity), IC50 is the inhibitor concentration at 50% enzyme inhibition and H represents the empirical Hill's slope to measure the cooperativity. Typically H is close to unity. Y=Min+(Max−Min)/(1+(X/IC50)^H) Equation (2) ^33P Phosphoryl Transfer Assay: […]
(§2) Greiner 384-well white, clear bottom, high binding plates are coated with 2 μg/well of protein or peptide substrate in a 50 μL volume overnight at ambient temperature. The coating buffer typically contains 40 μg/mL substrate, 22.5 mM Na2CO3, 27.5 mM NaHCO3, 150 mM NaCl and 3 mM NaN3. The coating solution is aspirated and the plates are washed once with 50 μL of assay buffer and padded dry. Subsequently compounds and enzymes are mixed with γ^33P-ATP (3.3 μCi/nmol) in a total volume of 20 uL in suitable assay buffers. The mixture is incubated at ambient temperature for 1.5-2.5 hrs and terminated by aspiration using a Molecular Devices EMBLA 96-head plate washer. The plates are subsequently washed 6-12 times with PBST or TBS buffer. Scintillation fluid (50 μl/well) is then added, the plates are sealed and activity assessed by liquid scintillation spectrometry using a Perkin Elmer MicroBeta TriLux.
(§3) In the LCCA assays, kinase activity is measured as the percent ATP consumed following the kinase reaction using luciferase-luciferin-coupled chemiluminescence. Greiner 384-well white, clear bottom, medium-binding plates are used for LCCA. Briefly, the kinase reaction is initiated by mixing compounds, ATP and kinase in a 20 uL volume. The mixture is incubated at ambient temperature for 2-4 hrs. At the end of the kinase reaction, a 20 uL luciferase-luciferin mix is added and the chemiluminescent signal is read using a Wallac Victor^2 reader. The luciferase-luciferin mix consists of 50 mM HEPES, pH 7.8, 8.5 ug/mL oxalic acid (pH 7.8), 5 (or 50) mM DTT, 0.4% Triton X-100, 0.25 mg/mL coenzyme A, 63 uM AMP, 28 ug/mL luciferin and 40,000 units of light/mL luciferase. For the LCCA assays, total ATP consumption has been standardized to 25-45% and the IC50 values correlates well with those determined by radiometric assays.
(§4) AlphaScreen technology is a proximity assay which utilizes the increase in fluorescent signal occurring when donor and acceptor beads are close in proximity. Biotinylated poly(Glu,Tyr) 4:1 is used as the kinase substrate, in conjunction with streptavidin-coated donor beads and anti-phosphortyrosine antibody PY100-coated acceptor beads. Upon phosphorylation, the peptide substrate can bind to both donor and acceptor beads giving rise to an increase in fluorescence. Compounds, ATP, biotinylated poly(Glu, Tyr) and kinases are mixed in a volume of 20 uL for 1 hr at ambient temperature using Greiner 384-well white clear bottom medium binding plates. Following incubation a 10 uL solution containing […] AlphaScreen beads, 75 mM Hepes, pH 7.4, 300 mM NaCl, 120 mM EDTA, 0.3% BSA and 0.03% Tween-20 is added to each well. After 2-16 hr incubation of the beads, plates are read in a Perkin Elmer AlphaQuest reader. The IC50 values correlates well with those of radiometric assays.

c-Kit = c-Kit (Homo sapiens, UniProt P10721); test: c-Kit biochemical assay (AlphaScreen)
Procedure, shortened: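 Kinase, compound, ATP and biotinylated poly(Glu,Tyr) 4:1 reacted 1 hr at ambient temperature; quenched with EDTA buffer (pH 7.4) containing streptavidin donor and anti-phosphotyrosine PY100 acceptor beads, incubated 16 hr, then AlphaScreen signal read to give IC50.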

EphB4 = biological target: T2, EphB4 (Homo sapiens, UniProt P54760); test: EphB4 kinase inhibition assay; type: biochemical
T2 sequence (P54760 16-987): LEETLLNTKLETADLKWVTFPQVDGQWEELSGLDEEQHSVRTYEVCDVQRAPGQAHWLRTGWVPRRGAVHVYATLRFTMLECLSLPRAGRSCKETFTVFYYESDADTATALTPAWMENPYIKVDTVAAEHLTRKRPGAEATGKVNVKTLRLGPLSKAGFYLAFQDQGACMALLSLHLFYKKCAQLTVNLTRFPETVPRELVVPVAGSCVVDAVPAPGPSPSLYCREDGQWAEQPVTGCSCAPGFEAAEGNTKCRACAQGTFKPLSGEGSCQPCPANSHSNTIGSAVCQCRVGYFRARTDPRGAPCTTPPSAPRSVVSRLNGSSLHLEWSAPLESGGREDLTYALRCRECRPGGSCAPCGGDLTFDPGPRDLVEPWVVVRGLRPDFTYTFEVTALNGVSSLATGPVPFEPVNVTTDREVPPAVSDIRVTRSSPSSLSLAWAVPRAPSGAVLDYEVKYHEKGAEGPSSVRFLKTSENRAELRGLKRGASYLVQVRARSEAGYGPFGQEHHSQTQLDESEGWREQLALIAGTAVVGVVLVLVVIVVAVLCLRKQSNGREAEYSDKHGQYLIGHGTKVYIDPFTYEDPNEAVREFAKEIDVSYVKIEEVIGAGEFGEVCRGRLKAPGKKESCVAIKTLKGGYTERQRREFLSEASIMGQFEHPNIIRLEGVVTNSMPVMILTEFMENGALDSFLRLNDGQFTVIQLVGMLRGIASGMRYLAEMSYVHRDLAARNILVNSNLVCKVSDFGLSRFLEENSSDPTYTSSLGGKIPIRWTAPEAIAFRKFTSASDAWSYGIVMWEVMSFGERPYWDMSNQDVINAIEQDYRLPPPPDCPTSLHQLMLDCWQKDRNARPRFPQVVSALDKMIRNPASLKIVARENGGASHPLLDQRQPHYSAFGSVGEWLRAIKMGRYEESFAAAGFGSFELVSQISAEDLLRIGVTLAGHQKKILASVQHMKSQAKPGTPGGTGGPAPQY
Method: as §1, §2, §3, §4

Sequence of c-Kit (P10721 26-976): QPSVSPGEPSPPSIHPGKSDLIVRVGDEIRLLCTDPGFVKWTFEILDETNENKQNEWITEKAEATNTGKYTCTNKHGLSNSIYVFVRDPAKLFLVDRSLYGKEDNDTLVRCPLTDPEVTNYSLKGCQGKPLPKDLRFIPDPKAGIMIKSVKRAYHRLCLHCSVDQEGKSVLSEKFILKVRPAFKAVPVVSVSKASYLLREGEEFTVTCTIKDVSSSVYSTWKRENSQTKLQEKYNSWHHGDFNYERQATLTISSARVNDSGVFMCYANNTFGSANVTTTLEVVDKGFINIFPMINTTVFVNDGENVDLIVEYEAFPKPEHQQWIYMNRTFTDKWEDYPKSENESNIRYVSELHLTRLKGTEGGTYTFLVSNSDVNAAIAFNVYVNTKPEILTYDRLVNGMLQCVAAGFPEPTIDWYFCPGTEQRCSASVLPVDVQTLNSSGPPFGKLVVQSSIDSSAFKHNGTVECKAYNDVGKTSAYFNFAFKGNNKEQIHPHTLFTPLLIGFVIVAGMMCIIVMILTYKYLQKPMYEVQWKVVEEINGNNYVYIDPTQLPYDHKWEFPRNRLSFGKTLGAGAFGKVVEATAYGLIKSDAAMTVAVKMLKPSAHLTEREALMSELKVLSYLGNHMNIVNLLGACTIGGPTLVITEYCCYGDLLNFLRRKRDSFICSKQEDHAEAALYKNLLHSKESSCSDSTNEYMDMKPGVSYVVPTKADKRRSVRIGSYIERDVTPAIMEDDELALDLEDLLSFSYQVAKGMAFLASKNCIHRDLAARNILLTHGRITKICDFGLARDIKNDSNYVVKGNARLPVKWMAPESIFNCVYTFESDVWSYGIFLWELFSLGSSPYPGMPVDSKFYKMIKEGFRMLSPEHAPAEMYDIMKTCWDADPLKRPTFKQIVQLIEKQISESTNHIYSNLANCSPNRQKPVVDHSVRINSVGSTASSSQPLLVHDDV
Sequence of EGFR (P00533 25-1210, species assumed): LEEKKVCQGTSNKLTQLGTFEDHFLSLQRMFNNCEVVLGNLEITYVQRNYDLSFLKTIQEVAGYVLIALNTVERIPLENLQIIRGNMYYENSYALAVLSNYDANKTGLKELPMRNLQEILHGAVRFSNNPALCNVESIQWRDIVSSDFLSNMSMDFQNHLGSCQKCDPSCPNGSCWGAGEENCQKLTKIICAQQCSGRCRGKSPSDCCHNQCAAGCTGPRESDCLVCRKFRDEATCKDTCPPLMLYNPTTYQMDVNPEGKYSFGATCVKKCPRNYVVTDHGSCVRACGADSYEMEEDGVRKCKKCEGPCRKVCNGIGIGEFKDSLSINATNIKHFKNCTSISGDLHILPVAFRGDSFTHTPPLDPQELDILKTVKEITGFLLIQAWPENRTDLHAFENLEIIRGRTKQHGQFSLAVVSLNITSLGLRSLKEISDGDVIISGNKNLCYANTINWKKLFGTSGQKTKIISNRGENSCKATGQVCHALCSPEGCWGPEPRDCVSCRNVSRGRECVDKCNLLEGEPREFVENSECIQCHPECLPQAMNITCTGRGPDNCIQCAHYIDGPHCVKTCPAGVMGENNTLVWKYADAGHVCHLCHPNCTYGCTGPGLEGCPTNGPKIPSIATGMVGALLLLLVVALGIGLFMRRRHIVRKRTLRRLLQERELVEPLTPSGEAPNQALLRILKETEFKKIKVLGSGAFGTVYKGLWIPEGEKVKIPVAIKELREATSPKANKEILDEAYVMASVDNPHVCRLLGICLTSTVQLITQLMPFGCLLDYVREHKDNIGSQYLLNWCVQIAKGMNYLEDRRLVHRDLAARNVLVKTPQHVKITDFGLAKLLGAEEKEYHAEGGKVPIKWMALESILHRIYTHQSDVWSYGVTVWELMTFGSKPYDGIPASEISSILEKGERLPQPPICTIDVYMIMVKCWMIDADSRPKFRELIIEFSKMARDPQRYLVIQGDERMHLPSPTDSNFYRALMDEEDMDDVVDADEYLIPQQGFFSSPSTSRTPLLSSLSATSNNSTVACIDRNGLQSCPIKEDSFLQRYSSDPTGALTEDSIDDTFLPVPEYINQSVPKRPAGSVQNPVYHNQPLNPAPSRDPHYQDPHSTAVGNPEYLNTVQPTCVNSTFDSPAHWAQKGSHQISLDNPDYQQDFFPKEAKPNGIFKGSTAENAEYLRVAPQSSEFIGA

Row | SMILES | IC50 (flt-3) | IC50 (EGFR) | IC50 (c-Kit) | IC50 (EphB4)
1 | Oc1ccc(/C=C/c2cc(-c3cc4ccccc4o3)n[nH]2)cc1 [Entry 45, 4-{(E)-2-[3-(1-benzofuran-2-yl)-1H-pyrazol-5-yl]ethenyl}phenol] | 50 to 500 nM | > 5000 nM | 50 to 500 nM | > 5000 nM
2 | CN1CCN(c2ccc3[nH]c(-c4cc(-c5ccc(NC(=O)Nc6ccccc6F)cc5)[nH]n4)nc3c2)CC1 [Entry 35, N-(2-fluorophenyl)-N′-(4-{3-[5-(4-methylpiperazin-1-yl)-1H-benzimidazol-2-yl]-1H-pyrazol-5-yl}phenyl)urea] | < 50 nM | > 5000 nM | < 50 nM | > 5000 nM
3 | Oc1ccc(/C=C/c2cc(/C=C/c3ccccc3)[nH]n2)cc1 [Entry 36, 4-((E)-2-{5-[(E)-2-phenylethenyl]-1H-pyrazol-3-yl}ethenyl)phenol] | < 50 nM | > 5000 nM | < 50 nM | > 5000 nM
4 | O=C(Nc1ccc(-c2cc(-c3ccccc3)n[nH]2)cc1)Nc1ccc(Cl)c(C(F)(F)F)c1 [Entry 50, N-[4-chloro-3-(trifluoromethyl)phenyl]-N′-[4-(3-phenyl-1H-pyrazol-5-yl)phenyl]urea] | 50 to 500 nM | > 5000 nM | 50 to 500 nM | > 5000 nM
5 | CN1CCN(c2ccc3[nH]c(-c4cc(-c5ccc(NC(=O)Nc6cccc(F)c6)cc5)[nH]n4)nc3c2)CC1 [Entry 22, N-(3-fluorophenyl)-N′-(4-{3-[5-(4-methylpiperazin-1-yl)-1H-benzimidazol-2-yl]-1H-pyrazol-5-yl}phenyl)urea] | < 50 nM | > 5000 nM | < 50 nM | > 5000 nM
6 | COc1cc(NC(=O)Nc2ccc(-c3cc(-c4nc5ccc(N6CCN(C)CC6)cc5[nH]4)n[nH]3)cc2)cc(OC)c1 [Entry 11, N-[3,5-bis(methyloxy)phenyl]-N′-(4-{3-[6-(4-methylpiperazin-1-yl)-1H-benzimidazol-2-yl]-1H-pyrazol-5-yl}phenyl)urea] | < 50 nM | > 5000 nM | < 50 nM | > 5000 nM
7 | CN1CCN(c2ccc3nc(-c4cc(/C=C/c5ccc(O)cc5)[nH]n4)[nH]c3c2)CC1 [Entry 1, 4-((E)-2-{3-[6-(4-methylpiperazin-1-yl)-1H-benzimidazol-2-yl]-1H-pyrazol-5-yl}ethenyl)phenol] | < 50 nM | > 5000 nM | < 50 nM | 500 to 5000 nM
8 | O=C(Nc1ccccc1)Nc1ccc(-c2cc(-c3ccccc3)n[nH]2)cc1 [Entry 76, N-phenyl-N′-[4-(3-phenyl-1H-pyrazol-5-yl)phenyl]urea] | 500 to 5000 nM | > 5000 nM | 500 to 5000 nM | > 5000 nM
9 | CN1CCN(c2ccc3[nH]c(-c4cc(-c5ccc(NC(=O)Nc6ccc(F)cc6)cc5)[nH]n4)nc3c2)CC1 [Entry 23, N-(4-fluorophenyl)-N′-(4-{3-[5-(4-methylpiperazin-1-yl)-1H-benzimidazol-2-yl]-1H-pyrazol-5-yl}phenyl)urea] | < 50 nM | > 5000 nM | < 50 nM | > 5000 nM
10 | CN1CCN(c2ccc3nc(-c4cc(-c5ccc(NC(=O)Nc6cccc(Br)c6)cc5)[nH]n4)[nH]c3c2)CC1 [Entry 7, N-(3-bromophenyl)-N′-(4-{3-[6-(4-methylpiperazin-1-yl)-1H-benzimidazol-2-yl]-1H-pyrazol-5-yl}phenyl)urea] | < 50 nM | > 5000 nM | < 50 nM | > 5000 nM
11 | Oc1ccc(/C=C/c2cc(-c3ccccc3)n[nH]2)cc1 [Entry 54, 4-[(E)-2-(3-phenyl-1H-pyrazol-5-yl)ethenyl]phenol] | < 50 nM | > 5000 nM | 50 to 500 nM | > 5000 nM
12 | CCN1CCN(c2ccc(-c3cc(-c4ccc(NC(=O)Nc5ccc(Cl)c(C(F)(F)F)c5)cc4)[nH]n3)cc2)CC1 [Entry 21, N-[4-chloro-3-(trifluoromethyl)phenyl]-N′-(4-{3-[4-(4-ethylpiperazin-1-yl)phenyl]-1H-pyrazol-5-yl}phenyl)urea] | < 50 nM | > 5000 nM | < 50 nM | > 5000 nM
13 | CN1CCN(c2ccc(-c3cc(-c4ccc(NC(=O)C(=O)NCCc5ccccc5)cc4)[nH]n3)cc2)CC1 [Entry 46, N-(4-{3-[4-(4-methylpiperazin-1-yl)phenyl]-1H-pyrazol-5-yl}phenyl)-N′-(2-phenylethyl)ethanediamide] | > 5000 nM | > 5000 nM | 50 to 500 nM | 500 to 5000 nM
14 | Oc1ccc(/C=C/c2cc(-c3ccc(F)cc3)[nH]n2)cc1 [Entry 60, 4-{(E)-2-[5-(4-fluorophenyl)-1H-pyrazol-3-yl]ethenyl}phenol] | < 50 nM | > 5000 nM | 50 to 500 nM | > 5000 nM
